Publication PMC12107143, “MALT1 inhibitor MI-2 induces ferroptosis by direct targeting of GPX4” (Proceedings of the National Academy of Sciences of the …, 2025)
pIC50: −log10 of the molar value.

Target: T1, MALT1 (Homo sapiens, UniProt Q9UDY8)
T1 construct: GST-MALT1 (aa 325–760)
T1 sequence (Q9UDY8 325-760): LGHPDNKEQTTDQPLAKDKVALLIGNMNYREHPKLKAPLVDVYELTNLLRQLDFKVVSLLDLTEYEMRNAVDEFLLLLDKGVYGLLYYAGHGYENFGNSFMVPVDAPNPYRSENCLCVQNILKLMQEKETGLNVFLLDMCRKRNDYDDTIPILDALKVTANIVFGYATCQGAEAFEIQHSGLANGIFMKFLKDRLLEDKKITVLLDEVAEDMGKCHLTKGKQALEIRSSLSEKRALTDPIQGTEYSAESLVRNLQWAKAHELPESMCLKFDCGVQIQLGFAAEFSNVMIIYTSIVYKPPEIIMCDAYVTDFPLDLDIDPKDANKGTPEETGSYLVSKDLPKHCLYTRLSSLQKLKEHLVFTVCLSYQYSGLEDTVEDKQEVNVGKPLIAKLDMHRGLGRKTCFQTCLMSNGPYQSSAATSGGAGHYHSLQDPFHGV
Assay: recombinant GST-MALT1 protease assay with fluorescence substrate Ac-LRSR-AMC
Assay type: biochemical

pIC50: 5.68
Compound: COCCOc1nc(-c2ccc(Cl)c(Cl)c2)n(-c2ccc(NC(=O)CCl)cc2)n1 [MI-2]
